Data reported in PubChem BioAssay (NCI).
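Interpolation was linear, between the two tested concentrations surrounding the appropriate level; five concentrations were tested over 48 hours in 96-well plates. The concentration for full growth arrest is given as TGI.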

Legend:
Test in all cases: NCI tumour cell line growth inhibition, 48 h
786-0 renal = system: 786-0 renal
A549 NSCLC = system: A549 NSCLC
ACHN renal = system: ACHN renal
BT-549 breast = system: BT-549 breast
CAKI-1 renal = system: CAKI-1 renal
CCRF-CEM leukemia = system: CCRF-CEM leukemia
COLO 205 colon = system: COLO 205 colon
DU-145 prostate = system: DU-145 prostate
EKVX NSCLC = system: EKVX NSCLC
HCC-2998 colon = system: HCC-2998 colon
HCT-116 colon = system: HCT-116 colon
HCT-15 colon = system: HCT-15 colon
HL-60(TB) leukemia = system: HL-60(TB) leukemia
HOP-62 NSCLC = system: HOP-62 NSCLC
HS 578T breast = system: HS 578T breast
HT29 colon = system: HT29 colon
IGROV1 ovarian = system: IGROV1 ovarian
K-562 leukemia = system: K-562 leukemia
KM12 colon = system: KM12 colon
LOX IMVI melanoma = system: LOX IMVI melanoma
M14 melanoma = system: M14 melanoma
MALME-3M melanoma = system: MALME-3M melanoma
MCF7 breast = system: MCF7 breast
MDA-MB-231 breast = system: MDA-MB-231 breast
MDA-MB-435 = system: MDA-MB-435
MDA-N = system: MDA-N
MOLT-4 leukemia = system: MOLT-4 leukemia
NCI-H226 lung = system: NCI-H226 lung
NCI-H23 lung = system: NCI-H23 lung
NCI-H460 lung = system: NCI-H460 lung
NCI-H522 lung = system: NCI-H522 lung
NCI/ADR-RES ovarian = system: NCI/ADR-RES ovarian
OVCAR-3 ovarian = system: OVCAR-3 ovarian
OVCAR-4 ovarian = system: OVCAR-4 ovarian
OVCAR-8 ovarian = system: OVCAR-8 ovarian
RPMI-8226 leukemia = system: RPMI-8226 leukemia
SF-268 CNS = system: SF-268 CNS
SF-295 CNS = system: SF-295 CNS
SF-539 CNS = system: SF-539 CNS
SK-MEL-28 melanoma = system: SK-MEL-28 melanoma
SK-MEL-5 melanoma = system: SK-MEL-5 melanoma
SN12C renal = system: SN12C renal
SNB-19 CNS = system: SNB-19 CNS
SR leukemia = system: SR leukemia
SW-620 colon = system: SW-620 colon
T-47D breast = system: T-47D breast
TK-10 renal = system: TK-10 renal
U251 CNS = system: U251 CNS
UACC-257 melanoma = system: UACC-257 melanoma
UACC-62 melanoma = system: UACC-62 melanoma
UO-31 renal = system: UO-31 renal
A498 renal = system: A498 renal
HOP-92 NSCLC = system: HOP-92 NSCLC
OVCAR-5 ovarian = system: OVCAR-5 ovarian
RXF 393 renal = system: RXF 393 renal
SK-MEL-2 melanoma = system: SK-MEL-2 melanoma
SK-OV-3 ovarian = system: SK-OV-3 ovarian
SNB-75 CNS = system: SNB-75 CNS

COc1nc(=O)n(C2CC(F)C(CO)O2)cc1C (stereo unspecified)
TGI (786-0 renal): > 100 µM | TGI (A549 NSCLC): > 100 µM | TGI (ACHN renal): > 100 µM | TGI (BT-549 breast): > 100 µM | TGI (CAKI-1 renal): > 100 µM | TGI (CCRF-CEM leukemia): > 100 µM | TGI (COLO 205 colon): > 100 µM | TGI (DU-145 prostate): > 100 µM | TGI (EKVX NSCLC): > 100 µM | TGI (HCC-2998 colon): > 100 µM | TGI (HCT-116 colon): > 100 µM | TGI (HCT-15 colon): > 100 µM | TGI (HL-60(TB) leukemia): > 100 µM | TGI (HOP-62 NSCLC): > 100 µM | TGI (HS 578T breast): > 100 µM | TGI (HT29 colon): > 100 µM | TGI (IGROV1 ovarian): > 100 µM | TGI (K-562 leukemia): > 100 µM | TGI (KM12 colon): > 100 µM | TGI (LOX IMVI melanoma): > 100 µM | TGI (M14 melanoma): > 100 µM | TGI (MALME-3M melanoma): > 100 µM | TGI (MCF7 breast): > 100 µM | TGI (MDA-MB-231 breast): > 100 µM | TGI (MDA-MB-435): > 100 µM | TGI (MDA-N): > 100 µM | TGI (MOLT-4 leukemia): > 100 µM | TGI (NCI-H226 lung): > 100 µM | TGI (NCI-H23 lung): > 100 µM | TGI (NCI-H460 lung): > 100 µM | TGI (NCI-H522 lung): > 100 µM | TGI (NCI/ADR-RES ovarian): > 100 µM | TGI (OVCAR-3 ovarian): > 100 µM | TGI (OVCAR-4 ovarian): > 100 µM | TGI (OVCAR-8 ovarian): > 100 µM | TGI (RPMI-8226 leukemia): > 100 µM | TGI (SF-268 CNS): > 100 µM | TGI (SF-295 CNS): > 100 µM | TGI (SF-539 CNS): > 100 µM | TGI (SK-MEL-28 melanoma): > 100 µM | TGI (SK-MEL-5 melanoma): > 100 µM | TGI (SN12C renal): > 100 µM | TGI (SNB-19 CNS): > 100 µM | TGI (SR leukemia): > 100 µM | TGI (SW-620 colon): > 100 µM | TGI (T-47D breast): > 100 µM | TGI (TK-10 renal): > 100 µM | TGI (U251 CNS): > 100 µM | TGI (UACC-257 melanoma): > 100 µM | TGI (UACC-62 melanoma): > 100 µM | TGI (UO-31 renal): > 100 µM

C/C(=N\NC(=S)N1CCN(c2ccccn2)CC1)c1cccc(C)n1
TGI (786-0 renal): 3.31 µM | TGI (A498 renal): 6.33 µM | TGI (A549 NSCLC): 18.5 µM | TGI (ACHN renal): 12.7 µM | TGI (BT-549 breast): 18 µM | TGI (CCRF-CEM leukemia): > 100 µM | TGI (COLO 205 colon): 11.3 µM | TGI (DU-145 prostate): 14.6 µM | TGI (EKVX NSCLC): 10.5 µM | TGI (HCC-2998 colon): 24.8 µM | TGI (HCT-116 colon): 10.5 µM | TGI (HCT-15 colon): 16 µM | TGI (HL-60(TB) leukemia): 17.6 µM | TGI (HOP-62 NSCLC): 20.1 µM | TGI (HOP-92 NSCLC): 14.3 µM | TGI (HS 578T breast): 43.5 µM | TGI (HT29 colon): 14.5 µM | TGI (IGROV1 ovarian): 4.01 µM | TGI (K-562 leukemia): > 38.2 µM | TGI (KM12 colon): 18 µM | TGI (LOX IMVI melanoma): 17.8 µM | TGI (M14 melanoma): 9.23 µM | TGI (MALME-3M melanoma): 19.3 µM | TGI (MCF7 breast): 12.4 µM | TGI (MDA-MB-231 breast): 13.1 µM | TGI (MDA-MB-435): 17.4 µM | TGI (MDA-N): 17.8 µM | TGI (MOLT-4 leukemia): 53.2 µM | TGI (NCI-H226 lung): 9.38 µM | TGI (NCI-H23 lung): 21.8 µM | TGI (NCI-H460 lung): 11.9 µM | TGI (NCI-H522 lung): 0.59 µM | TGI (NCI/ADR-RES ovarian): 27.5 µM | TGI (OVCAR-5 ovarian): 13.3 µM | TGI (OVCAR-8 ovarian): 14.1 µM | TGI (RPMI-8226 leukemia): 12.6 µM | TGI (RXF 393 renal): 4.98 µM | TGI (SF-268 CNS): 19.9 µM | TGI (SF-295 CNS): 12.3 µM | TGI (SF-539 CNS): 6.12 µM | TGI (SK-MEL-2 melanoma): 6.78 µM | TGI (SK-MEL-28 melanoma): 25.3 µM | TGI (SK-MEL-5 melanoma): 7.06 µM | TGI (SK-OV-3 ovarian): 21.4 µM | TGI (SN12C renal): 21.9 µM | TGI (SNB-19 CNS): 19.9 µM | TGI (SNB-75 CNS): 12.5 µM | TGI (SR leukemia): > 100 µM | TGI (SW-620 colon): 14.2 µM | TGI (T-47D breast): 35 µM | TGI (TK-10 renal): 21.5 µM | TGI (U251 CNS): 17.5 µM | TGI (UACC-257 melanoma): 16.8 µM | TGI (UACC-62 melanoma): 7.16 µM | TGI (UO-31 renal): 30.6 µM
